The test system of the assay is C57BL/6 (female) mice. Briefly: Assessment of hair growth-promoting effect on androgen-induced telogen in C57BL/6 mice. It counts as in vivo, mouse. The note with it: DHT 2 mg/mL, 100 μL subcutaneously every other day, casein-containing feed, Day 14, vs no DHT.

Each structure is given as a SMILES string.

Experimental: C57BL/6 (female) mice available from Charles River Laboratories Japan, Inc. were used for the test. The animals were randomly divided into test groups so that the mean body weight was approximately equal between groups. The mice were housed three per cage at room temperature (25° C.) under a 12-hour light-dark cycle.
The mice at six weeks old purchased from the vendor were preliminarily bred for one week for acclimation to the test environment. A commercially available hair removal cream was applied to the dorsal region of the mice at an age of seven weeks old to remove the hair.
Until the start of the test, the mice were fed with free access to a solid CRF-1 feed (Oriental Yeast Co., Ltd.) and tap water as drinking water.
The hair of the 7-week-old C57BL/6 mice was in the telogen phase of the hair cycle, but due to the stimulation of hair removal, the hair gradually entered into the anagen phase. This transition in the hair cycle was hampered by administration of an androgen after the hair removal. […] From two days after the hair removal, the mixed feeds indicated in Table 5 were given with free access thereto.
On the final observation day (Day 14 of administration), the mice in the test and control groups were anesthetized and fixed on a photography table, and the hair removal region was photographed.

Regarding `C[C@]12CCC(=O)C[C@@H]1CC[C@@H]1[C@@H]2CC[C@]2(C)[C@@H](O)CC[C@@H]12` [DHT, dihydrotestosterone], the “Blackening of the dorsal skin after hair removal” value is reported as “inhibited”.

These data come from US10154684B2, “Hair regrowth and growth promoter and use thereof” (PHARMA FOODS INTERNATIONAL CO., LTD., priority 2014, dated 2018).
